PubChem BioAssay (NCI)
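Values below derive from 48-hour exposures of cells grown in 96-well plates, with endpoints linearly interpolated between the two concentrations bracketing the appropriate inhibition level. TGI: total growth inhibition.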

Experiments:
Assay in all cases: NCI anticancer screen, dose series, 48 h
[1] = test system: NCI-H460 lung
[2] = test system: K-562 leukemia
[3] = test system: MOLT-4 leukemia
[4] = test system: PC-3 prostate
[5] = test system: HL-60(TB) leukemia
[6] = test system: 786-0 renal
[7] = test system: M14 melanoma
[8] = test system: HOP-92 NSCLC
[9] = test system: BT-549 breast
[10] = test system: A549 NSCLC
[11] = test system: NCI-H226 lung
[12] = test system: SN12C renal
[13] = test system: SF-268 CNS
[14] = test system: NCI-H23 lung
[15] = test system: UACC-257 melanoma
[16] = test system: MDA-N
[17] = test system: EKVX NSCLC
[18] = test system: SK-MEL-28 melanoma
[19] = test system: MCF7 breast
[20] = test system: HT29 colon
[21] = test system: HCT-15 colon
[22] = test system: OVCAR-8 ovarian
[23] = test system: HCT-116 colon
[24] = test system: CAKI-1 renal
[25] = test system: MDA-MB-435
[26] = test system: MDA-MB-231 breast
[27] = test system: SK-MEL-5 melanoma
[28] = test system: SR leukemia
[29] = test system: COLO 205 colon
[30] = test system: SF-539 CNS
[31] = test system: HS 578T breast
[32] = test system: UO-31 renal
[33] = test system: SF-295 CNS
[34] = test system: RXF 393 renal
[35] = test system: SNB-19 CNS
[36] = test system: SK-OV-3 ovarian
[37] = test system: OVCAR-3 ovarian
[38] = test system: IGROV1 ovarian
[39] = test system: ACHN renal
[40] = test system: UACC-62 melanoma
[41] = test system: OVCAR-4 ovarian
[42] = test system: SK-MEL-2 melanoma
[43] = test system: TK-10 renal
[44] = test system: OVCAR-5 ovarian
[45] = test system: A498 renal
[46] = test system: CCRF-CEM leukemia
[47] = test system: LOX IMVI melanoma
[48] = test system: NCI/ADR-RES ovarian
[49] = test system: KM12 colon
[50] = test system: MALME-3M melanoma
[51] = test system: HOP-62 NSCLC
[52] = test system: U251 CNS
[53] = test system: RPMI-8226 leukemia
[54] = test system: SW-620 colon
[55] = test system: SNB-75 CNS
[56] = test system: DU-145 prostate
[57] = test system: NCI-H522 lung
[58] = test system: T-47D breast
[59] = test system: HCC-2998 colon

SMILES: CN(CCCNC(=O)c1cn(C)c2c1Cc1ccccc1-2)CCCNC(=O)c1cn(C)c2c1Cc1ccccc1-2
- TGI [1]: 23.8 µM
- TGI [2]: 17 µM
- TGI [3]: 16.4 µM
- TGI [4]: 22.7 µM
- TGI [5]: 28.6 µM
- TGI [6]: 17.9 µM
- TGI [7]: 11.6 µM
- TGI [8]: 7.89 µM
- TGI [9]: 39.2 µM
- TGI [10]: 32.3 µM
- TGI [11]: 41.4 µM
- TGI [12]: 27 µM
- TGI [13]: 21.3 µM
- TGI [14]: 29.5 µM
- TGI [15]: 18.9 µM
- TGI [16]: 12.3 µM
- TGI [17]: 22.6 µM
- TGI [18]: 24 µM
- TGI [19]: 25.4 µM
- TGI [20]: 5.7 µM
- TGI [21]: 25.2 µM
- TGI [22]: 29.8 µM
- TGI [23]: 22.2 µM
- TGI [24]: 28.4 µM
- TGI [25]: 5.16 µM
- TGI [26]: 27.4 µM
- TGI [27]: 28.4 µM
- TGI [28]: 11.1 µM
- TGI [29]: 4.05 µM
- TGI [30]: 31.8 µM
- TGI [31]: 25.2 µM
- TGI [32]: 21.8 µM
- TGI [33]: 26.2 µM
- TGI [34]: 34.9 µM
- TGI [35]: 24.1 µM
- TGI [36]: 32.6 µM
- TGI [37]: 31.3 µM
- TGI [38]: 21.8 µM
- TGI [39]: 22.9 µM
- TGI [40]: 27.6 µM
- TGI [41]: 26.8 µM
- TGI [42]: 30.6 µM
- TGI [43]: 25.1 µM
- TGI [44]: 29.9 µM
- TGI [45]: 26.8 µM
- TGI [46]: 17.2 µM
- TGI [47]: 24.6 µM
- TGI [48]: 28 µM
- TGI [49]: 26.9 µM
- TGI [50]: 24.5 µM
- TGI [51]: 29.2 µM
- TGI [52]: 20.2 µM
- TGI [53]: > 100 µM
- TGI [54]: 18.5 µM

SMILES: Cc1cccc2sc(-c3ccc(O)cc3)nc12
- TGI [1]: 33.3 µM
- TGI [2]: > 100 µM
- TGI [3]: > 100 µM
- TGI [4]: 31.7 µM
- TGI [5]: 40.8 µM
- TGI [7]: 28.5 µM
- TGI [9]: 25.2 µM
- TGI [10]: 34.8 µM
- TGI [11]: 34.6 µM
- TGI [12]: 34.3 µM
- TGI [55]: 26.2 µM
- TGI [13]: 31.9 µM
- TGI [14]: 31.9 µM
- TGI [15]: 33.1 µM
- TGI [16]: 19.4 µM
- TGI [17]: 16.8 µM
- TGI [18]: 33.4 µM
- TGI [19]: 26.9 µM
- TGI [20]: 28.7 µM
- TGI [21]: 26 µM
- TGI [22]: 31.8 µM
- TGI [23]: 28.9 µM
- TGI [24]: 30.5 µM
- TGI [25]: 26.8 µM
- TGI [26]: 38.7 µM
- TGI [27]: 20.6 µM
- TGI [28]: 47.3 µM
- TGI [29]: 28.1 µM
- TGI [30]: 37.8 µM
- TGI [56]: 31.6 µM
- TGI [32]: 26.4 µM
- TGI [33]: 29.1 µM
- TGI [34]: 32.1 µM
- TGI [35]: 31.8 µM
- TGI [36]: 35.4 µM
- TGI [37]: 29.8 µM
- TGI [38]: 29.2 µM
- TGI [39]: 33 µM
- TGI [40]: 30.1 µM
- TGI [41]: 29.5 µM
- TGI [42]: 33.7 µM
- TGI [43]: 42.1 µM
- TGI [57]: 31.7 µM
- TGI [44]: 30.2 µM
- TGI [45]: 20.4 µM
- TGI [46]: 49.6 µM
- TGI [47]: 49.6 µM
- TGI [48]: 38.9 µM
- TGI [49]: 31.6 µM
- TGI [50]: 32.8 µM
- TGI [52]: 39.1 µM
- TGI [53]: 44.2 µM
- TGI [54]: 23.7 µM

SMILES: C=CC1CN(C(=O)OCC)N(C(=O)OCC)C1CCc1ccccc1 (configuration not stated)
- TGI [1]: > 100 µM
- TGI [2]: > 100 µM
- TGI [3]: > 100 µM
- TGI [4]: > 100 µM
- TGI [5]: > 100 µM
- TGI [6]: > 100 µM
- TGI [7]: > 100 µM
- TGI [8]: > 100 µM
- TGI [10]: > 100 µM
- TGI [11]: > 100 µM
- TGI [12]: > 100 µM
- TGI [55]: > 100 µM
- TGI [13]: > 100 µM
- TGI [14]: > 100 µM
- TGI [15]: > 100 µM
- TGI [16]: > 100 µM
- TGI [17]: > 100 µM
- TGI [18]: > 100 µM
- TGI [19]: > 100 µM
- TGI [20]: > 100 µM
- TGI [21]: > 100 µM
- TGI [22]: > 100 µM
- TGI [23]: > 100 µM
- TGI [24]: > 100 µM
- TGI [25]: > 100 µM
- TGI [26]: > 100 µM
- TGI [27]: > 100 µM
- TGI [28]: > 100 µM
- TGI [29]: > 100 µM
- TGI [31]: > 100 µM
- TGI [56]: > 100 µM
- TGI [32]: > 100 µM
- TGI [33]: > 100 µM
- TGI [58]: > 100 µM
- TGI [35]: > 100 µM
- TGI [36]: > 100 µM
- TGI [38]: > 100 µM
- TGI [39]: > 100 µM
- TGI [40]: > 100 µM
- TGI [41]: > 100 µM
- TGI [42]: > 100 µM
- TGI [59]: > 100 µM
- TGI [43]: > 100 µM
- TGI [57]: > 100 µM
- TGI [44]: > 100 µM
- TGI [46]: > 100 µM
- TGI [47]: > 100 µM
- TGI [48]: > 100 µM
- TGI [49]: > 100 µM
- TGI [50]: > 100 µM
- TGI [51]: > 100 µM
- TGI [52]: > 100 µM
- TGI [53]: > 100 µM

SMILES: Cc1ccc(C)n2c1nc1ccccc12
- TGI [1]: > 100 µM
- TGI [2]: > 100 µM
- TGI [3]: > 100 µM
- TGI [4]: > 100 µM
- TGI [5]: > 100 µM
- TGI [6]: > 100 µM
- TGI [7]: > 100 µM
- TGI [8]: > 100 µM
- TGI [9]: > 100 µM
- TGI [10]: > 100 µM
- TGI [11]: > 100 µM
- TGI [12]: > 100 µM
- TGI [55]: > 100 µM
- TGI [13]: > 100 µM
- TGI [14]: > 100 µM
- TGI [15]: > 100 µM
- TGI [16]: > 100 µM
- TGI [17]: > 100 µM
- TGI [18]: > 100 µM
- TGI [19]: > 100 µM
- TGI [20]: > 100 µM
- TGI [21]: > 100 µM
- TGI [22]: > 100 µM
- TGI [25]: > 100 µM
- TGI [27]: > 100 µM
- TGI [28]: > 100 µM
- TGI [29]: > 100 µM
- TGI [30]: > 100 µM
- TGI [31]: > 100 µM
- TGI [56]: > 100 µM
- TGI [32]: > 100 µM
- TGI [33]: > 100 µM
- TGI [34]: > 100 µM
- TGI [58]: > 100 µM
- TGI [35]: > 100 µM
- TGI [36]: > 100 µM
- TGI [37]: > 100 µM
- TGI [38]: > 100 µM
- TGI [39]: > 100 µM
- TGI [40]: > 100 µM
- TGI [59]: > 100 µM
- TGI [43]: > 100 µM
- TGI [44]: > 100 µM
- TGI [45]: 33.7 µM
- TGI [46]: > 100 µM
- TGI [48]: > 100 µM
- TGI [49]: > 100 µM
- TGI [50]: > 100 µM
- TGI [51]: > 100 µM
- TGI [52]: > 100 µM
- TGI [53]: > 100 µM
- TGI [54]: > 100 µM
